Assay results reported in ChEMBL document CHEMBL3603798, “Computer-aided identification, synthesis, and biological evaluation of novel inhibitors for botulinum neurotoxin serotype A” (Bioorg Med Chem, 2015).
Activity calls are given as the source filed them. No cut-off for these calls is given here.

Tests used:
[1] = biological target: Botulinum neurotoxin type A (Clostridium botulinum, UniProt P0DPI0); assay: Inhibition of Clostridium botulinum neurotoxin type A light chain by SNAPtide assay
[2] = Toxicity against mouse Neuro2a cells assessed as reduction in cell viability at 10 to 100 uM incubated for 48 hrs; format: cell-based; conditions: n2a
[3] = biological target: Botulinum neurotoxin type A (Clostridium botulinum) (UniProt P0DPI0); assay: Inhibition of Clostridium botulinum neurotoxin type A light chain incoulated in mouse Neuro2a cells assessed as reduction in SNAP-25 cleavage at 10 uM incubated for 48 hrs by SDS-PAGE based Western blotting method; format: cell-based
Sequence of Botulinum neurotoxin type A (Clostridium botulinum) (P0DPI0 2-448 limits assumed): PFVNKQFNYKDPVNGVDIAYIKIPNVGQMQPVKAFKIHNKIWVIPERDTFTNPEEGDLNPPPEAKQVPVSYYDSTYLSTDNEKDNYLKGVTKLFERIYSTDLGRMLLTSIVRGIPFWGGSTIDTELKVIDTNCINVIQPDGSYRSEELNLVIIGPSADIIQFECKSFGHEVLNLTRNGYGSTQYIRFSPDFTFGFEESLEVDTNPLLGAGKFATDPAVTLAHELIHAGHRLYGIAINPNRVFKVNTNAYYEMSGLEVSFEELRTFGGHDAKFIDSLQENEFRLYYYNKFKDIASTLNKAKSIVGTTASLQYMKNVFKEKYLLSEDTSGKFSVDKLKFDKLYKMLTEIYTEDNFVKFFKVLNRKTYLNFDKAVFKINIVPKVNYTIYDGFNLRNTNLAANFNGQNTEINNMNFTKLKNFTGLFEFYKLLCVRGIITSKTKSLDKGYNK

Sequence of Botulinum neurotoxin type A (P0DPI0 2-448 limits assumed): as above

SMILES	IC50 [1] [µM]	Activity [2]	inhibition [3]
COc1cccc(CN2C(=O)c3ccccc3[C@@H]2C(=O)NC2CCC(C)CC2)c1 (stereo not given in full)	157	–	–
COC(=O)c1c(C)nc2n(CCN3CCCCC3)c3ccccc3n12	55	–	–
O=c1[nH]c2cc3c(cc2c(=O)n1CCc1nc(-c2ccc(C(F)(F)F)cc2)no1)OCO3	24	Non-toxic	Active
Cc1ccc(-c2nc(SCC(=O)N3CCCC[C@@H]3C)c(S(=O)(=O)c3ccccc3)[nH]2)cc1	159	–	–
O=c1c2cc3c(cc2n(Cc2nc(-c4ccc(C(F)(F)F)cc4)no2)c(=O)n1Cc1nc(-c2ccc(C(F)(F)F)cc2)no1)OCO3	16	–	–
CC[C@@H]1Oc2ccccc2N(CC(=O)NCCCN2CCC(Cc3ccccc3)CC2)C1=O	154	–	–
N=C(N)NCCC[C@H](NC(=O)[C@@H](N)CCCNC(=N)N)C(=O)NCC(=O)N[C@@H](CS)C(=O)O	31	–	–
O=C(COc1cccc(/C=C2\NC(=O)N(Cc3ccccc3F)C2=O)c1)Nc1ccc(F)cc1	> 50	–	–
Cc1cc(NC(=S)N(CCCN2CCC[C@@H](C)C2)Cc2cccs2)ccc1Cl	92	–	–
O=C(COc1ccc(/C=C2\NC(=O)N(Cc3ccccc3F)C2=O)cc1)Nc1ccc(F)cc1	26	–	–
O=C(COc1ccccc1/C=C1\NC(=O)N(Cc2ccccc2F)C1=O)Nc1ccc(F)cc1	22	Non-toxic	Active
